Source: patent US20220332774A1, “THERAPEUTIC MITOCHONDRIAL PEPTIDES” (priority 2019, published 2022)

These substances were tested on H4-IIE Cells (assay: Glucose production in cultured H4-IIE cells). Conditions: glucose concentration in medium relative to untreated cells; 5 μM peptide, 24 h.
Type: cell-based, rat
Description: The effect of the peptides on glucose homeostasis can be assessed using an assay to monitor glucose production by cultured cells such as rat hepatocytes. Peptide arrays were initially prepared as 5 mM stock in DMSO and diluted to 0.5 mM in H2O; peptides were used at a final concentration of 5 μM (0.1% DMSO). Calculations for peptide concentrations based on approximate molecular weight of 2000 Daltons. H4-IIE rat hepatic cell line was purchased from American Type Culture Collection (Manassas, Va.). H4-IIE cells were seeded in standard medium (DMEM/high glucose+10% Fetal Bovine Serum+antibiotics) at 100,000 cells/well on 96-well plates and allowed to adhere overnight at 37° C. in a humidified atmosphere of 5% CO2/95% air. 24 h after seeding, the medium was removed, cells were rinsed with glucose free DMEM, and the medium replaced with Glucose Production Medium (glucose free DMEM+2 mM sodium pyruvate+10 mM sodium lactate+antibiotics). The cultures were placed at 37° C. in a humidified atmosphere of 5% CO2/95% air overnight. The next morning, the medium was removed and fresh Glucose Production Medium containing compounds was added; 5 uM peptide or 0.5-1 nM insulin as a potent inhibitor of glucose production. Cells were incubated for 24 h at 37° C. in a humidified atmosphere of 5% CO2/95% air. Following 24 h incubation, conditioned medium from each well was transferred to a fresh 96-well plate. Glucose concentrations in the medium were determined using a Glucose Assay kit (Abcam; Cambridge, Mass.) according to the manufacturer's instructions; absorbance measured using a Cytation 3 plate reader at 570 nm (BioTek, Winooski, Vt.). Untreated cells were used as reference for maximal glucose production. Absorbance values were expressed as percent control activity relative to untreated treated cells for 5 μM peptide. The relative standard deviation from plate to plate of untreated control was <25%. […] Glucose levels for 0.5-1 nM insulin treatment were <5% of the untreated control value. Data are presented as representative values from 2-3 independent experiments with each data point performed in triplicate in each independent experiment.

Substance	Percent of Control Activity [%]
72 (MLQGQAHLSILFSI) [compound 72]	107
37 (MGLLEWLLCWHLLGRIINWWA) [compound 37]	103
32 (MGGEWGMGVWTWGCFLVWM) [compound 32]	100
193 (LHNNPNPNTNYLPNWKQNTQMGLS) [compound 193]	110
48 (MHKRLSPIYYSHRYLPDKRL) [compound 48]	101
183 (MMKVDATMDFT) [compound 183]	121
166 (MWSHPSHHSTINITNKWLL) [compound 166]	105
177 (MRMGASIGSTTRLSTS) [compound 177]	111
110 (MQPYRRYRFHPRLSMIYPTLQLM) [compound 110]	108
87 (MMMFVYSAMKN) [compound 87]	109
122 (MSNNMAFSTFKG) [compound 122]	97
150 (MVLWWFGGSG) [compound 150]	87
41 (MGSSRINPDPSPS) [compound 41]	108
85 (MMKLRLTPWRLPDPPNHH) [compound 85]	108
86 (MMLSWDDIIYGG) [compound 86]	108
71 (MLPLHIYHNTMGLTHPPH) [compound 71]	107

Substance	Percent of Control Activity [%]
155 (MVVCMVITFIWSCTKIFGA) [compound 155]	95
128 (MSWSNIEVVNPIVDMDS) [compound 128]	93
125 (MSSDEFANTMPV) [compound 125]	96
107 (MPTPILIFRSPWSLYSYPT) [compound 107]	96
164 (MWNDLLQCSEP) [compound 164]	109
68 (MLLNSHRCSMSKDNHHSP) [compound 68]	105
3 (MAGGFMLMIVVMKLMAPKMEETPA) [compound 3]	118
184 (MASAKGCSSP) [compound 184]	118
182 (MFAVSMMWSLE) [compound 182]	113
147 (MVLFLLGMVG) [compound 147]	98
8 (MAPPLPPLEPTVKLT) [compound 8]	90
82 (MMGITMKKIITNAWAVTMTL) [compound 82]	114
203 (KNIEAPLAW) [compound 203]	102
24 (MFKLSFYFYVV) [compound 24]	96
209 (FAVSMMWSLE) [compound 209]	104
178 (MVQTVSISWASEMLVLVSFVVSV) [compound 178]	108

These substances were tested on C2C12 Cells (assay: Glucose utilization in cultured C2C12 cells (myotubes)). Conditions: glucose concentration in medium relative to untreated cells; 5 μM peptide, 22 h.
Type: cell-based, mouse
Description: The effect of the peptides on glucose homeostasis can be assessed using an assay to monitor glucose utilization by cultured cells such as mouse myotubes. Peptide arrays were initially prepared as 5 mM stock in DMSO and diluted to 0.5 mM in H2O; peptides were used at a final concentration of 5 μM (0.1% DMSO). Calculations for peptide concentrations based on approximate molecular weight of 2000 Daltons. C2C12 mouse muscle cell line was purchased from Millipore Sigma (Saint Louis, Mo.). C2C12 cells were seeded in standard medium (DMEM/low glucose (1 g/L)+10% Fetal Bovine Serum+antibiotics) at 7,500 cells/well on 96-well plates and grown to confluence at 37° C. in a humidified atmosphere of 5% CO2/95% air. Three days after plating the medium was removed and with Differentiation Medium (DMEM/low glucose (1 g/L)+2% Horse Serum+antibiotics) added. The cultures were placed at 37° C. in a humidified atmosphere of 5% CO2/95% air for 5 days with partially replacement of medium daily. After 5 days of differentiation, the medium was removed from myotube cultures and replaced with Assay Medium (DMEM/low glucose (1 g/L)+antibiotics). Culture were placed at 37° C. in a humidified atmosphere of 5% CO2/95% air for 5 h. Following the 5 h incubation the medium was removed and fresh Assay Medium containing compounds was added; 5 μM peptide or 1 mM metformin as a potent stimulator of glucose utilization. Cells were incubated for 22 h at 37° C. in a humidified atmosphere of 5% CO2/95% air. Following 22 h incubation, conditioned medium from each well was transferred to a fresh 96-well plate. Glucose concentrations in the medium were determined using a Glucose Assay kit (Abcam; Cambridge, Mass.) according to the manufacturer's instructions; absorbance measured using a Cytation 3 plate reader at 570 nm (BioTek, Winooski, Vt.). Untreated cells were used as reference for basal glucose utilization. Absorbance values were expressed as percent control activity relative to untreated treated cells for 5 μM peptide. The relative standard deviation from plate to plate of untreated control was <10%. […] Data presented are representative values from 2-3 independent experiments with each data point performed in triplicate in each independent experiment.

Substance	Percent of Control Activity [%]
72 (MLQGQAHLSILFSI) [compound 72]	97
37 (MGLLEWLLCWHLLGRIINWWA) [compound 37]	109
32 (MGGEWGMGVWTWGCFLVWM) [compound 32]	108
193 (LHNNPNPNTNYLPNWKQNTQMGLS) [compound 193]	110
48 (MHKRLSPIYYSHRYLPDKRL) [compound 48]	104
183 (MMKVDATMDFT) [compound 183]	101
166 (MWSHPSHHSTINITNKWLL) [compound 166]	105
177 (MRMGASIGSTTRLSTS) [compound 177]	91
110 (MQPYRRYRFHPRLSMIYPTLQLM) [compound 110]	110
87 (MMMFVYSAMKN) [compound 87]	97
122 (MSNNMAFSTFKG) [compound 122]	103
150 (MVLWWFGGSG) [compound 150]	102
41 (MGSSRINPDPSPS) [compound 41]	109
85 (MMKLRLTPWRLPDPPNHH) [compound 85]	88
86 (MMLSWDDIIYGG) [compound 86]	87
71 (MLPLHIYHNTMGLTHPPH) [compound 71]	105

Substance	Percent of Control Activity [%]
155 (MVVCMVITFIWSCTKIFGA) [compound 155]	107
128 (MSWSNIEVVNPIVDMDS) [compound 128]	103
125 (MSSDEFANTMPV) [compound 125]	109
107 (MPTPILIFRSPWSLYSYPT) [compound 107]	110
164 (MWNDLLQCSEP) [compound 164]	102
68 (MLLNSHRCSMSKDNHHSP) [compound 68]	99
3 (MAGGFMLMIVVMKLMAPKMEETPA) [compound 3]	94
184 (MASAKGCSSP) [compound 184]	106
182 (MFAVSMMWSLE) [compound 182]	98
147 (MVLFLLGMVG) [compound 147]	107
8 (MAPPLPPLEPTVKLT) [compound 8]	102
82 (MMGITMKKIITNAWAVTMTL) [compound 82]	105
203 (KNIEAPLAW) [compound 203]	98
24 (MFKLSFYFYVV) [compound 24]	94
209 (FAVSMMWSLE) [compound 209]	102
178 (MVQTVSISWASEMLVLVSFVVSV) [compound 178]	99

Each substance was assayed on 3T3-L1 Mouse Adipocytes (assay: Free fatty acid levels in cultured 3T3-L1 mouse adipocytes (isoproterenol stimulated)). Conditions: free fatty acid in medium; 5 μM peptide, 20-22 h pre-incubation then 3 h with 0.1 nM isoproterenol; isoproterenol alone = 100%.
Type: cell-based
Description: The effect of the peptides on fatty acid metabolism can be assessed using an assay to monitor free fatty acid levels produced by cultured cells such as mouse adipocytes. Peptide arrays were initially prepared as 5 mM stock in DMSO and diluted to 0.5 mM in H2O; peptides were used at a final concentration of 5 μM (0.1% DMSO). Calculations for peptide concentrations based on approximate molecular weight of 2000 Daltons. […] Mouse 3T3-L1 cells purchased from ZenBio (Research Triangle Park, NC) were seeded at 3,000 cells per well in 96-well plates in Pre-adipocyte Medium (Zen-Bio) and grown to confluence at 37° C. in a humidified atmosphere of 5% CO2/95% air. Two days after confluence, cells were placed in Adipocyte Differentiation Medium (Zen-Bio) and cultured for three additional days at 37° C. in a humidified atmosphere of 5% CO2/95% air. The culture medium was then replaced with Adipocyte Maintenance Medium (Zen-Bio) and the cells maintained for an additional 9 days at 37° C. in a humidified atmosphere of 5% CO2/95% air with partial medium replacement every other day. Following 12 days of differentiation, medium was replaced Adipocyte Maintenance Medium without insulin and the cultures placed at 37° C. in a humidified atmosphere of 5% CO2/95% air. On day 13 of differentiation, test peptides were added directly to each well (without replacing the medium) at a final concentration of 5 μM in 0.1% DMSO and incubated for 20-22 hours at 37° C. in a humidified atmosphere of 5% CO2/95% air. […] Cells were incubated for 3 hours in Assay Buffer (Zen-Bio) at 37° C. in a humidified atmosphere of 5% CO2/95% air. Following 3 h incubation, conditioned medium from each well was transferred to a fresh 96-well plate. Free fatty acid concentrations in the medium were determined using a Free Fatty Acid Assay kit (Zen-Bio) according to the manufacturer's instructions; absorbance was measured using a Cytation 3 plate reader at 540 nm (BioTek, Winooski, Vt.). Treatment with 0.1 nM isoproterenol alone was used as the free fatty acid level stimulatory control. Absorbance values were expressed as percent control activity relative to 0.1 nM isoproterenol alone treated cells, 100%. The relative standard deviation of the isoproterenol control was <10%. Insulin at 0.25 nM was used as a potent control for decreasing free fatty acid levels. […] Data presented are representative values from 2 independent experiments with each data point performed in triplicate in each independent experiment.

Substance	Percent of Isoproterenol Control Activity [%]
72 (MLQGQAHLSILFSI) [compound 72]	96
37 (MGLLEWLLCWHLLGRIINWWA) [compound 37]	106
32 (MGGEWGMGVWTWGCFLVWM) [compound 32]	94
193 (LHNNPNPNTNYLPNWKQNTQMGLS) [compound 193]	105
48 (MHKRLSPIYYSHRYLPDKRL) [compound 48]	91
183 (MMKVDATMDFT) [compound 183]	94
166 (MWSHPSHHSTINITNKWLL) [compound 166]	96
177 (MRMGASIGSTTRLSTS) [compound 177]	94
110 (MQPYRRYRFHPRLSMIYPTLQLM) [compound 110]	93
87 (MMMFVYSAMKN) [compound 87]	101
122 (MSNNMAFSTFKG) [compound 122]	113
150 (MVLWWFGGSG) [compound 150]	94
41 (MGSSRINPDPSPS) [compound 41]	99
85 (MMKLRLTPWRLPDPPNHH) [compound 85]	81
86 (MMLSWDDIIYGG) [compound 86]	98
71 (MLPLHIYHNTMGLTHPPH) [compound 71]	89

Substance	Percent of Isoproterenol Control Activity [%]
155 (MVVCMVITFIWSCTKIFGA) [compound 155]	97
128 (MSWSNIEVVNPIVDMDS) [compound 128]	116
125 (MSSDEFANTMPV) [compound 125]	115
107 (MPTPILIFRSPWSLYSYPT) [compound 107]	104
164 (MWNDLLQCSEP) [compound 164]	116
68 (MLLNSHRCSMSKDNHHSP) [compound 68]	99
3 (MAGGFMLMIVVMKLMAPKMEETPA) [compound 3]	91
184 (MASAKGCSSP) [compound 184]	104
182 (MFAVSMMWSLE) [compound 182]	92
147 (MVLFLLGMVG) [compound 147]	99
8 (MAPPLPPLEPTVKLT) [compound 8]	102
82 (MMGITMKKIITNAWAVTMTL) [compound 82]	98
203 (KNIEAPLAW) [compound 203]	107
24 (MFKLSFYFYVV) [compound 24]	92
209 (FAVSMMWSLE) [compound 209]	97
178 (MVQTVSISWASEMLVLVSFVVSV) [compound 178]	90
